Laboratory results taken from ChEMBL document CHEMBL5727697, “TYK2 inhibitors and uses thereof” (2020).

molecular target: Non-receptor tyrosine-protein kinase TYK2 (Homo sapiens, UniProt P29597); assay: Binding Assay: Binding constants for compounds of the present invention against the JH2 domain were determined by the following protocol for a KINOMEscan® assay (DiscoveRx). A fusion protein of a partial length construct of human TYK2 (JH2domain-pseudokinase) (amino acids G556 to D888 based on reference sequence NP_003322.3) and the DNA binding domain of NFkB was expressed in transiently transfected HEK293 cells. From these HEK 293 cells, extracts were prepared in M-PER extraction buffer (Pierce) in the presence of Protease Inhibitor Cocktail Complete (Roche) and Phosphatase Inhibitor Cocktail Set II (Merck) per manufacturers' instructions. The TYK2 (JH2domain-pseudokinase) fusion protein was labeled with a chimeric double-stranded DNA tag containing the NFkB binding site (5′-GGGAATTCCC-3′) fused to an amplicon for qPCR readout, which was added directly to the expression extract (the final concentration of DNA-tag in the binding reaction is 0.1 nM).; assay type: cell-based
Sequence (P29597 whole entry, the tested form may be a part): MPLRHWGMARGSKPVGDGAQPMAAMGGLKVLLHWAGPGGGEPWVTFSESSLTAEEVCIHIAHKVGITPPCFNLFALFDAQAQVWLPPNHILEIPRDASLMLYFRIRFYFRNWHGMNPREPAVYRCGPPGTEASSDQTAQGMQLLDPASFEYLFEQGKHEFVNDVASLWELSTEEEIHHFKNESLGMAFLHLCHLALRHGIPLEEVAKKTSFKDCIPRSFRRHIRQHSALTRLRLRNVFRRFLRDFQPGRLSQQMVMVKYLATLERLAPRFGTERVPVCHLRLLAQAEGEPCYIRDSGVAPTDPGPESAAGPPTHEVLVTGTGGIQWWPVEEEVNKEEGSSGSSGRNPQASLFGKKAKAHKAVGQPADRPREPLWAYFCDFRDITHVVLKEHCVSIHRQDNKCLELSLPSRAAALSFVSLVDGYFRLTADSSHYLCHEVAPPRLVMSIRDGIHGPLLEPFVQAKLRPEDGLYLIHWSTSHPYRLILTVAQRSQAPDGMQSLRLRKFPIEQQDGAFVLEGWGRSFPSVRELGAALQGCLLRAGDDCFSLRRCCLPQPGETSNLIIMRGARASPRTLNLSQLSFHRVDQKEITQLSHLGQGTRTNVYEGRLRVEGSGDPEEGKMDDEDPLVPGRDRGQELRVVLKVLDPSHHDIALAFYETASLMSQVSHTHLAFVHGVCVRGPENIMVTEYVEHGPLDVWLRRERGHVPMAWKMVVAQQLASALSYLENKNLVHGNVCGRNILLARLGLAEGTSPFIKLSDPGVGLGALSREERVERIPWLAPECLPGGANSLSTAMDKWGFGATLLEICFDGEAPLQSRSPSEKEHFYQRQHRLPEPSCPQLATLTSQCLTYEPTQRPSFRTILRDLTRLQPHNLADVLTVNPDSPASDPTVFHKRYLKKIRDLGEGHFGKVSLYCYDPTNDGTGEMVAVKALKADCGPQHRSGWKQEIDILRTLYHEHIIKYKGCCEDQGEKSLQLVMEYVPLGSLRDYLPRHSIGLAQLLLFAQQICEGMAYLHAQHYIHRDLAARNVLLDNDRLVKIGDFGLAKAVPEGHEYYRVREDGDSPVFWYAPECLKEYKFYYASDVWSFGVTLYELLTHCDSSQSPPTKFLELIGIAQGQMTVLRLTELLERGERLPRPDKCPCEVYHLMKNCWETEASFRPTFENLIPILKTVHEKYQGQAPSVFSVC

Row | SMILES | Kd [nM]
1 | COc1c(Nc2cc(Nc3ccc(C(C)(C)OC)c(C#N)n3)nc3[nH]c(C)nc23)cccc1-c1nnn(C)n1 | > 10
2 | Cc1nc2c(Nc3ccc(-c4cnn(C)c4C)cc3S(C)(=O)=O)cc(Nc3cccc(C#N)n3)nc2[nH]1 | < 0.1
3 | Cn1cncc1-c1ccc(Nc2cc(NC(=O)[C@@H]3C[C@@H]3F)nc3[nH]c(C(F)F)nc23)c(S(C)(=O)=O)c1 | < 0.1
4 | COc1ccccc1Nc1cc(Nc2ccc(N3CCC4(CCOCC4)CC3)cn2)nc2[nH]c(C)nc12 | > 10

Now from value to compound:

Row | Kd [nM] | SMILES
5 | < 0.1 | COCCNc1ccc(Nc2cc(Nc3ccccc3N(C)S(C)(=O)=O)c3nc(C)[nH]c3n2)nc1C#N
6 | < 0.1 | Cc1c(-c2ccc(Nc3cc(NC(=O)C4CC4)nc4[nH]c(C(F)F)nc34)c(S(C)(=O)=O)c2)cnn1C
7 | < 0.1 | CN(c1cc(-c2cncn2C)ccc1Nc1cc(NC(=O)[C@@H]2C[C@@H]2F)nc2[nH]c(C(F)F)nc12)S(C)(=O)=O
